What all share (type): ADME, organism-based
Data set [1] in a line: Oral bioavailability in rat. The conditions noted are these: in vivo.
The nature of data set [2]: Compound was evaluated for plasma half life in rat.
A short description of data set [3]: Compound was evaluated for plasma clearance in rat. The conditions noted are these: read-out: Clp.
The nature of data set [4]: Compound was evaluated for volume of distribution in rat. The conditions noted are these: in vivo.

As for `CCCCc1nn(CC2CC2)c(C(=O)O)c1Cc1ccc(-c2ccccc2-c2nn[nH]n2)cc1`, the bioavailability (commonly the share of a dose that reaches the circulation, judged against a reference dose that is usually intravenous) in data set [1] turned out to be 58%. Moreover, the half-life (commonly the time in which the quantity being followed falls by half) in data set [2] is 12.3 h. Also, the clearance in data set [3] turned out to be 0.2 mL/min/kg. Also, the Vd – broadly, the apparent volume that relates the amount in the body to the concentration in plasma or blood – in data set [4] amounted to 0.2 L/kg.
As for `CCCCc1nn(CCCC)c(C(=O)O)c1Cc1ccc(-c2ccccc2-c2nn[nH]n2)cc1`, the bioavailability in data set [1] amounted to 26%. In data set [2], the half-life was 14.8 h. Also, in data set [3], the clearance came to 0.12 mL/min/kg. This molecule showed a Vd in data set [4] of 0.16 L/kg.
